# Data taken from US20240358692A1, “TREATMENT OF SCLERODERMA” (Aisa Pharma, Inc., priority 2023, published 2024).
# Test system: participants with SSc-RP
# Assay: SHAQ - Visual Analog Scale - Intestinal Problems
# Format: in vivo, human
# Parameters: Visual Analog Scale-Intestinal Problems, In Clinic Visit (Day 12), Mean / Visual Analog Scale-Intestinal Problems, In Clinic Visit (Day 12), Median / Visual Analog Scale-Intestinal Problems, Change from Baseline, Mean / Visual Analog Scale-Intestinal Problems, Change from Baseline, Median / SHAQ Visual Analogue Scale - Intestinal Problems, In-Clinic Visit (Day 12), Median: scale not given here
# Excerpt: The standard, validated, patient reported outcome measures tool for SSc patients, the Scleroderma Health Assessment Questionnaire (SHAQ), will be used to assess the participant qualify of life. Details are attached in the Appendix. The participant quality of life will be scored, and a disability index calculated for each questionnaire completed by the patient at Screening and each in-clinic visit. The absolute change in participant quality of life from baseline to the end of each dosing period will be calculated similar to frequency data as before.
# The standard, validated, patient reported outcome measures tool for SSc patients, the SHAQ, was collected at the time points specified in the study schedules (FIG. 2 and FIGS. 4A and 4B) to assess the participant's quality of life. The SHAQ included a Raynaud's VAS that will also be reported separately.
# [1] = Any Cilnidipine (N = 17), Day 12, PP Population, Part A
# [2] = Cilnidipine 10 mg, SSc patients, PP, Part A
# [3] = Cilnidipine 20 mg, SSc patients, PP, Part A
# [4] = Modified ITT Population-Part A, Day 12, dose cilnidipine 20 mg, tadalafil 5 mg, alone or combined as labelled
# [5] = Modified ITT Population-Part A, dose cilnidipine 10 mg, tadalafil 5 mg, alone or combined as labelled
# [6] = Pooled Cilnidipine (N = 8), Day 12, PP Population, Part A
# [7] = pooled Cilnidipine 10 mg and Cilnidipine 10 mg + Tadalafil 5 mg
compound,measurement,setting,value
COCCOC(=O)C1=C(C)NC(C)=C(C(=O)OC/C=C/c2ccccc2)C1c1cccc([N+](=O)[O-])c1 (centres unmarked) [Cilnidipine],"SHAQ Visual Analogue Scale - Intestinal Problems, Change from Baseline, Mean (SD)",[1],−0.556 (1.7427)
same,"SHAQ Visual Analogue Scale - Intestinal Problems, Change from Baseline, Median",[1],−0.100
same,"SHAQ Visual Analogue Scale - Intestinal Problems, In-Clinic Visit (Day 12), Mean (SD)",[1],1.121 (1.4119)
same,"SHAQ Visual Analogue Scale - Intestinal Problems, In-Clinic Visit (Day 12), Median",[1],0.600
same,"SHAQ Visual Analogue Scale - Intestinal Problems, Percent Change from Baseline, Mean (SD)",[1],−18.65 (93.767) %
same,"SHAQ Visual Analogue Scale - Intestinal Problems, Percent Change from Baseline, Median",[1],−54.13%
same,"SHAQ VAS Intestinal Problems, Change from Baseline, Max",[2],0.00
same,"SHAQ VAS Intestinal Problems, Change from Baseline, Median",[2],−1.550
same,"SHAQ VAS Intestinal Problems, Change from Baseline, Min",[2],"−4.40,"
same,"SHAQ VAS Intestinal Problems, Change from Baseline, Q1",[2],"−3.700,"
same,"SHAQ VAS Intestinal Problems, Change from Baseline, Q3",[2],−0.050
same,"SHAQ VAS Intestinal Problems, Day 12, Max",[2],3.80
same,"SHAQ VAS Intestinal Problems, Day 12, Mean",[2],1.100
same,"SHAQ VAS Intestinal Problems, Day 12, Median",[2],0.300
same,"SHAQ VAS Intestinal Problems, Day 12, Min",[2],"0.00,"
same,"SHAQ VAS Intestinal Problems, Day 12, Q1",[2],"0.000,"
same,"SHAQ VAS Intestinal Problems, Day 12, Q3",[2],2.200
same,"SHAQ VAS Intestinal Problems, Percent Change from Baseline, Max",[2],−44.1
same,"SHAQ VAS Intestinal Problems, Percent Change from Baseline, Median",[2],−88.00
same,"SHAQ VAS Intestinal Problems, Percent Change from Baseline, Min",[2],"−100.0,"
same,"SHAQ VAS Intestinal Problems, Percent Change from Baseline, Q1",[2],"−100.00,"
same,"SHAQ VAS Intestinal Problems, Percent Change from Baseline, Q3",[2],−44.12
same,"SHAQ VAS Intestinal Problems, Change from Baseline, Max",[3],0.60
same,"SHAQ VAS Intestinal Problems, Change from Baseline, Mean",[3],0.150
same,"SHAQ VAS Intestinal Problems, Change from Baseline, Median",[3],0.150
same,"SHAQ VAS Intestinal Problems, Change from Baseline, Min",[3],"−0.30,"
same,"SHAQ VAS Intestinal Problems, Change from Baseline, Q1",[3],"−0.150,"
same,"SHAQ VAS Intestinal Problems, Change from Baseline, Q3",[3],0.450
same,"SHAQ VAS Intestinal Problems, Day 12, Max",[3],2.10
same,"SHAQ VAS Intestinal Problems, Day 12, Mean",[3],0.850
same,"SHAQ VAS Intestinal Problems, Day 12, Median",[3],0.650
same,"SHAQ VAS Intestinal Problems, Day 12, Min",[3],"0.00,"
same,"SHAQ VAS Intestinal Problems, Day 12, Q1",[3],"0.000,"
same,"SHAQ VAS Intestinal Problems, Day 12, Q3",[3],1.700
same,"SHAQ VAS Intestinal Problems, Percent Change from Baseline, Max",[3],40.0
same,"SHAQ VAS Intestinal Problems, Percent Change from Baseline, Mean",[3],−10.00
same,"SHAQ VAS Intestinal Problems, Percent Change from Baseline, Min",[3],"−100.0,"
same,"SHAQ VAS Intestinal Problems, Percent Change from Baseline, Q1",[3],"−100.00,"
same,"SHAQ VAS Intestinal Problems, Percent Change from Baseline, Q3",[3],40.00
same,"SHAQ Intestinal Difficulty, mean % change","Cilnidipine, pooled, n = 7 (in column Cilnidipine 20 mg), minus = improvement, Table A*","−45% (pooled,"
same,"Visual Analog Scale-Intestinal Problems, Percent Change from Baseline, Median","Modified ITT Population-Part A, Day 12, dose cilnidipine 10 mg, tadalafil 5 mg, alone or combined as labelled",−88.00%
same,"Visual Analog Scale-Intestinal Problems, Change from Baseline, Mean",[4],0.300
same,"Visual Analog Scale-Intestinal Problems, Change from Baseline, Median",[4],0.300
same,"Visual Analog Scale-Intestinal Problems, Percent Change from Baseline, Mean",[4],35.00%
same,"Visual Analog Scale-Intestinal Problems, Percent Change from Baseline, Median",[4],35.00%
same,"Visual Analog Scale-Intestinal Problems, In Clinic Visit (Day 12), Mean",[5],1.100
same,"Visual Analog Scale-Intestinal Problems, In Clinic Visit (Day 12), Median",[5],0.300
same,"Visual Analog Scale-Intestinal Problems, In Clinic Visit (Day 12), Median","Modified ITT Population-Part A, dose cilnidipine 20 mg, tadalafil 5 mg, alone or combined as labelled",1.300
same,"SHAQ Visual Analogue Scale - Intestinal Problems, In-Clinic Visit (Day 12), Median","Pooled Cilnidipine 10 mg and Cilnidipine 10 mg + Tadalafil 5 mg (N = 9), Day 12, PP Population, Part A",0.700
same,"SHAQ Visual Analogue Scale - Intestinal Problems, In-Clinic Visit (Day 12), Median","Pooled Cilnidipine 20 mg and Cilnidipine 20 mg + Tadalafil 5 mg (N = 8), Day 12, PP Population, Part A",0.100
same,"SHAQ Visual Analogue Scale - Intestinal Problems, Change from Baseline, Mean (SD)",[6],−0.863 (1.8110)
same,"SHAQ Visual Analogue Scale - Intestinal Problems, In-Clinic Visit (Day 12), Mean (SD)",[6],0.975 (1.3781)
same,"SHAQ Visual Analogue Scale - Intestinal Problems, Percent Change from Baseline, Mean (SD)",[6],−43.69 (64.404) %
same,"% Δ from baseline, Intestinal Problems mean",Pooled cilnidipine (n=5),−32.4%
same,VAS Intestinal Problems Change from Baseline Max,[7],1.00
same,VAS Intestinal Problems Change from Baseline Mean,[7],−1.228
